Results reported in US10131652B2, “Pyrimidinyloxy benzene derivatives as herbicides” (E. I. DU PONT DE NEMOURS AND COMPANY, priority 2014, dated 2018).

Columns and labels:
Test in all cases: Test F pre-/postemergence plant response
Type in all cases: in vivo
Details in all cases: scale 0 to 100
[1] = tested on: fall panicum (Panicum dichotomiflorum)
Text: (§1) Seeds of plant species selected from corn (Zea mays), soybean (Glycine max), velvetleaf (Abutilon theophrasti), lambsquarters (Chenopodium album), wild poinsettia (Euphorbia heterophylla), palmer pigweed (Amaranthus palmeri), waterhemp (common waterhemp, Amaranthus rudis), surinam grass (Brachiaria decumbens), large (Lg) crabgrass (Digitaria sanguinalis), Brazilian crabgrass (Digitaria horizontalis), fall panicum (Panicum dichotomiflorum), giant foxtail (Setaria faberii), green foxtail (Setaria viridis), goosegrass (Eleusine indica), johnsongrass (Sorghum halepense), ragweed (common ragweed, Ambrosia elatior), barnyardgrass (Echinochloa crus-galli), sandbur (southern sandbur, Cenchrus echinatus), arrowleaf sida (Sida rhombifolia), Italian ryegrass (Lolium multiflorum), dayflower (Virginia (VA) dayflower, Commelina virginica), field bindweed (Convolvulus arvensis), cocklebur (common cocklebur, Xanthium strumarium), momingglory (Ipomoea coccinea), nightshade (eastern black nightshade, Solanum ptycanthum), kochia (Kochia scoparia), yellow nutsedge (Cyperus esculentus), and hairy beggarticks (Bidens pilosa), were planted into a silt loam soil and treated preemergence with test chemicals formulated in a non-phytotoxic solvent mixture which included a surfactant.
(§2) At the same time, plants from these crop and weed species and also waterhemp_RES1, (ALS & Triazine resistant common waterhemp, Amaranthus rudis), and waterhemp_RES2, (ALS & HPPD resistant common waterhemp, Amaranthus rudis) were treated with postemergence applications of test chemicals formulated in the same manner. Plants ranged in height from 2 to 18 cm for postemergence treatments (1- to 4-leaf stage).
(§3) Treated plants and controls were maintained in a greenhouse for 14 to 21 days, after which time all species were compared to controls and visually evaluated. Plant response ratings, summarized in Table F, are based on a scale of 0 to 100 where 0 is no effect and 100 is complete control. A dash (-) response means no test result.

[2] = tested on: soybean (Glycine max)
Text: as §1, §2, §3

[3] = tested on: ragweed (common ragweed, Ambrosia elatior)
Text: as §1, §2, §3

[4] = tested on: wild poinsettia (Euphorbia heterophylla)
Text: as §1, §2, §3

[5] = tested on: Italian ryegrass (Lolium multiflorum)
Text: as §1, §2, §3

[6] = tested on: field bindweed (Convolvulus arvensis)
Text: as §1, §2, §3

[7] = tested on: Brazilian crabgrass (Digitaria horizontalis)
Text: as §1, §2, §3

[8] = tested on: corn (Zea mays)
Text: as §1, §2, §3

[9] = tested on: kochia (Kochia scoparia)
Text: as §1, §2, §3

[10] = tested on: hairy beggarticks (Bidens pilosa)
Text: as §1, §2, §3

Structure (SMILES) | Plant response rating, Panicum, Fall ([1]; 16 g ai/ha Postemergence) | Plant response rating, Panicum, Fall ([1]; 31 g ai/ha Postemergence) | Plant response rating, Panicum, Fall ([1]; 62 g ai/ha Postemergence) | Plant response rating, Panicum, Fall ([1]; 125 g ai/ha Postemergence) | Plant response rating, Soybean ([2]; 16 g ai/ha Postemergence) | Plant response rating, Soybean ([2]; 31 g ai/ha Postemergence) | Plant response rating, Soybean ([2]; 62 g ai/ha Postemergence) | Plant response rating, Soybean ([2]; 125 g ai/ha Postemergence) | Plant response rating, Ragweed ([3]; 16 g ai/ha Postemergence) | Plant response rating, Ragweed ([3]; 31 g ai/ha Postemergence) | Plant response rating, Ragweed ([3]; 62 g ai/ha Postemergence) | Plant response rating, Ragweed ([3]; 125 g ai/ha Postemergence) | Plant response rating, Poinsettia, Wild ([4]; 16 g ai/ha Postemergence) | Plant response rating, Poinsettia, Wild ([4]; 31 g ai/ha Postemergence) | Plant response rating, Poinsettia, Wild ([4]; 62 g ai/ha Postemergence) | Plant response rating, Poinsettia, Wild ([4]; 125 g ai/ha Postemergence) | Plant response rating, Ryegrass, Italian ([5]; 16 g ai/ha Postemergence) | Plant response rating, Ryegrass, Italian ([5]; 31 g ai/ha Postemergence) | Plant response rating, Ryegrass, Italian ([5]; 62 g ai/ha Postemergence) | Plant response rating, Ryegrass, Italian ([5]; 125 g ai/ha Postemergence) | also measured
FC(F)c1cc(-c2ccccc2Oc2ncc(Br)cn2)on1 [Compound 212] | 0 | 0 | 10 | 10 | 50 | 50 | 75 | 95 | 20 | 20 | 30 | 50 | 35 | 40 | 50 | 60 | 0 | 0 | 0 | 0 | Plant response rating, Field Bindweed ([6]; 16 g ai/ha Postemergence): 30; Plant response rating, Field Bindweed ([6]; 31 g ai/ha Postemergence): 40; Plant response rating, Field Bindweed ([6]; 62 g ai/ha Postemergence): 60; Plant response rating, Field Bindweed ([6]; 125 g ai/ha Postemergence): 70; Plant response rating, Crabgrass, Brazil ([7]; 16 g ai/ha Postemergence): 20; Plant response rating, Crabgrass, Brazil ([7]; 31 g ai/ha Postemergence): 30; Plant response rating, Crabgrass, Brazil ([7]; 62 g ai/ha Postemergence): 30; Plant response rating, Crabgrass, Brazil ([7]; 125 g ai/ha Postemergence): 35; Plant response rating, Corn ([8]; 16 g ai/ha Postemergence): 0; Plant response rating, Corn ([8]; 31 g ai/ha Postemergence): 0; Plant response rating, Corn ([8]; 62 g ai/ha Postemergence): 0; Plant response rating, Corn ([8]; 125 g ai/ha Postemergence): 0; Plant response rating, Kochia ([9]; 16 g ai/ha Postemergence): 50; Plant response rating, Kochia ([9]; 31 g ai/ha Postemergence): 90; Plant response rating, Kochia ([9]; 62 g ai/ha Postemergence): 100; Plant response rating, Kochia ([9]; 125 g ai/ha Postemergence): 100; Plant response rating, Beggarticks ([10]; 16 g ai/ha Postemergence): 25; Plant response rating, Beggarticks ([10]; 31 g ai/ha Postemergence): 40; Plant response rating, Beggarticks ([10]; 62 g ai/ha Postemergence): 40; Plant response rating, Beggarticks ([10]; 125 g ai/ha Postemergence): 40
Fc1ccc(Oc2ncc(Cl)cn2)c(-c2cc(C(F)(Cl)Cl)on2)c1 [Compound 221] | 10 | 15 | 40 | 60 | 60 | 95 | 98 | 95 | 50 | 60 | 70 | 80 | 65 | 75 | 70 | 80 | 0 | 0 | 0 | 5 | Plant response rating, Field Bindweed ([6]; 16 g ai/ha Postemergence): 70; Plant response rating, Field Bindweed ([6]; 31 g ai/ha Postemergence): 75; Plant response rating, Field Bindweed ([6]; 125 g ai/ha Postemergence): 80; Plant response rating, Crabgrass, Brazil ([7]; 16 g ai/ha Postemergence): 20; Plant response rating, Crabgrass, Brazil ([7]; 31 g ai/ha Postemergence): 25; Plant response rating, Crabgrass, Brazil ([7]; 62 g ai/ha Postemergence): 45; Plant response rating, Crabgrass, Brazil ([7]; 125 g ai/ha Postemergence): 75; Plant response rating, Corn ([8]; 16 g ai/ha Postemergence): 5; Plant response rating, Corn ([8]; 31 g ai/ha Postemergence): 10; Plant response rating, Corn ([8]; 62 g ai/ha Postemergence): 10; Plant response rating, Corn ([8]; 125 g ai/ha Postemergence): 20; Plant response rating, Kochia ([9]; 16 g ai/ha Postemergence): 95; Plant response rating, Kochia ([9]; 31 g ai/ha Postemergence): 98; Plant response rating, Kochia ([9]; 62 g ai/ha Postemergence): 100; Plant response rating, Kochia ([9]; 125 g ai/ha Postemergence): 100; Plant response rating, Beggarticks ([10]; 16 g ai/ha Postemergence): 50; Plant response rating, Beggarticks ([10]; 31 g ai/ha Postemergence): 60; Plant response rating, Beggarticks ([10]; 62 g ai/ha Postemergence): 70; Plant response rating, Beggarticks ([10]; 125 g ai/ha Postemergence): 70
